Measurements: patent US5306712A, “Fungicidal silicon-containing compounds and their agrochemical and medicinal uses” (Sanyo Company, Limited, priority 1991, dated 1994)

What was measured:
[1] = tested on: Gliocladium virens (Fungus B); assay: Antifungal Activity (paper disc on agar); details: 30 μl of 300 ppm acetone solution, 25° C., 5 days
Procedure: (§1) A fungal disc of about 4 mm diameter was inoculated on an agar medium (2% by weight malt extract, 1% glucose, 0.3% peptone and 2% agar) in a petri dish of diameter 9 cm, by placing the disc on the center of the medium. Paper disc specimens were prepared by impregnating 30 μl of an acetone solution containing 300 ppm of the test compound into the disc (diameter 8 mm, thickness 0.7 mm) and then subjecting it to dry sterilization. The disc specimens were placed in a circle at about 1 cm distance from the fringe of the grown fungus, three days after the inoculation. The specimens were then maintained at 25° C. for 5 days, after which the antifungal activity was determined by visual observation of infection of the specimens by the fungus. The fungi tested were:
Gliocladium virens (Fungus B), and

[2] = tested on: Tyromyces palustris (Fungus E); assay: Wood-preservative Activity (Antidecay); details: paper disc, 30 μl of 300 ppm acetone solution, 25° C., 5 days
Procedure: (§2) A fungal disc of about 4 mm diameter was inoculated on an agar medium (2% by weight malt extract, 1% glucose, 0.3% peptone and 2% agar) in a petri dish of diameter 9 cm, by placing the disc on the center of the medium. Paper disc specimens were prepared by impregnating 30 μl of an acetone solution containing 300 ppm of the test compound into the disc (diameter 8 mm, thickness 0.7 mm) and then subjecting it to dry sterilization. The disc specimens were placed in a circle at about 1 cm distance from the fringe of the grown fungus, three days after the inoculation. The specimens were then maintained at 25° C. for 5 days, after which the antifungal activity was determined by visual observation of infection of the specimens by the fungus.
(§3) The procedure described in Experiment 7 was repeated, except that the fungi tested were Coriolus versicolor (Fungus D) and Tyromyces palustris (Fungus E), which are prescribed in JIS A-9201.

[3] = tested on: Coriolus versicolor (Fungus D); assay: Wood-preservative Activity (Antidecay); details: paper disc, 30 μl of 300 ppm acetone solution, 25° C., 5 days
Procedure: as §2, §3

[4] = tested on: Aspergillus niger (Fungus A); assay: Antifungal Activity (paper disc on agar); details: 30 μl of 300 ppm acetone solution, 25° C., 5 days
Procedure: as §1
Aspergillus niger (Fungus A),

[5] = tested on: Fusarium moliniforme (Fungus C); assay: Antifungal Activity (paper disc on agar); details: 30 μl of 300 ppm acetone solution, 25° C., 5 days
Procedure: as §1
Fusarium moliniforme (Fungus C).
The antifungal activity is indicated by the following ratings:

C[Si](C)(C)CC(O)(Cn1cncn1)c1ccccc1 (stereo not shown) [Compound 1-1, 2-Phenyl-1-(1H-1,2,4-triazol-1-yl)-3-trimethylsilyl-2-propanol]
antifungal activity, Fungus B [1]: - | wood-preservative (antidecay) activity, Fungus E [2]: + | wood-preservative (antidecay) activity, Fungus D [3]: + | antifungal activity, Fungus A [4]: + | antifungal activity, Fungus C [5]: +

C[Si](C)(C)CC(O)(Cn1cncn1)c1ccc(Br)cc1 (stereo not shown) [Compound 1-4, 2-(4-Bromophenyl)-1-(1H-1,2,4-triazol-1-yl)-3-trimethylsilyl-2-propanol]
antifungal activity, Fungus B [1]: + | wood-preservative (antidecay) activity, Fungus E [2]: + | wood-preservative (antidecay) activity, Fungus D [3]: + | antifungal activity, Fungus A [4]: + | antifungal activity, Fungus C [5]: +

Cc1ccc(C(O)(Cn2cncn2)C[Si](C)(C)C)cc1 (stereo not shown) [Compound 1-5, 2-(4-Methylphenyl)-1-(1H-1,2,4-triazol-1-yl)-3-trimethylsilyl-2-propanol]
antifungal activity, Fungus B [1]: + | wood-preservative (antidecay) activity, Fungus E [2]: + | wood-preservative (antidecay) activity, Fungus D [3]: + | antifungal activity, Fungus A [4]: + | antifungal activity, Fungus C [5]: +

C[Si](C)(C)CC(O)(Cn1cncn1)c1ccc(C(F)(F)F)cc1 (stereo not shown) [Compound 1-6, 1-(1H-1,2,4-Triazol-1-yl)-2-(4-trifluoromethylphenyl)-3-trimethylsilyl-2-propanol]
antifungal activity, Fungus B [1]: - | wood-preservative (antidecay) activity, Fungus E [2]: + | wood-preservative (antidecay) activity, Fungus D [3]: + | antifungal activity, Fungus A [4]: + | antifungal activity, Fungus C [5]: +

C[Si](C)(C)CC(O)(Cn1cncn1)c1ccc(Cl)cc1Cl (stereo not shown) [Compound 1-11, 2-(2,4-Dichlorophenyl)-1-(1H-1,2,4-triazol-1-yl)-3-trimethysilyl-2-propanol]
antifungal activity, Fungus B [1]: + | wood-preservative (antidecay) activity, Fungus E [2]: + | wood-preservative (antidecay) activity, Fungus D [3]: + | antifungal activity, Fungus A [4]: + | antifungal activity, Fungus C [5]: +

C[Si](C)(C)CC(O)(Cn1cncn1)c1ccc(Cl)cc1F (stereo not shown) [Compound 1-14, 2-(4-Chloro-2-fluorophenyl)-1-(1H-1,2,4-triazol-1-yl)-3-trimethylsilyl-2-propanol]
antifungal activity, Fungus B [1]: + | wood-preservative (antidecay) activity, Fungus E [2]: + | wood-preservative (antidecay) activity, Fungus D [3]: + | antifungal activity, Fungus A [4]: + | antifungal activity, Fungus C [5]: +

C[Si](C)(C)CC(O)(Cn1cncn1)c1ccccc1Cl (stereo not shown) [Compound 1-16, 2-(2-Chlorophenyl)-1-(1H-1,2,4-triazol-1-yl)-3-trimethylsilyl-2-propanol]
antifungal activity, Fungus B [1]: + | wood-preservative (antidecay) activity, Fungus E [2]: + | wood-preservative (antidecay) activity, Fungus D [3]: + | antifungal activity, Fungus A [4]: + | antifungal activity, Fungus C [5]: +

C[Si](C)(C)CC(O)(Cn1cncn1)c1ccccc1F (stereo not shown) [Compound 1-17, 2-(2-Fluorophenyl)-1-(1H-1,2,4-triazol-1-yl)-3-trimethylsilyl-2-propanol]
antifungal activity, Fungus B [1]: + | wood-preservative (antidecay) activity, Fungus E [2]: + | wood-preservative (antidecay) activity, Fungus D [3]: + | antifungal activity, Fungus A [4]: + | antifungal activity, Fungus C [5]: +

C[Si](C)(C)CC(O)(Cn1cncn1)c1ccc(Cl)c(Cl)c1 (stereo not shown) [Compound 1-29, 2-(3,4-Dichlorophenyl)-1-(1H-1,2,4-triazol-1-yl)-3-trimethylsilyl-2-propanol]
antifungal activity, Fungus B [1]: - | wood-preservative (antidecay) activity, Fungus E [2]: - | wood-preservative (antidecay) activity, Fungus D [3]: - | antifungal activity, Fungus A [4]: - | antifungal activity, Fungus C [5]: +

C[Si](C)(C)CC(O)(Cn1ccnc1)c1ccc(Cl)cc1Cl (stereo not shown) [Compound 1-49, 2-(2,4-Dichlorophenyl)-1-(1H-1,3-imidazol-1-yl)-3-trimethylsilyl-2-propanol]
antifungal activity, Fungus B [1]: - | wood-preservative (antidecay) activity, Fungus E [2]: - | wood-preservative (antidecay) activity, Fungus D [3]: + | antifungal activity, Fungus A [4]: - | antifungal activity, Fungus C [5]: -

C[Si](C)(C)CC(O)(Cn1ccnc1)c1ccc(F)cc1F (stereo not shown) [Compound 1-50, 2-(2,4-Difluorophenyl)-1-(1H-1,3-imidazol-1-yl)-3-trimethylsilyl-2-propanol]
antifungal activity, Fungus B [1]: - | wood-preservative (antidecay) activity, Fungus E [2]: - | wood-preservative (antidecay) activity, Fungus D [3]: + | antifungal activity, Fungus A [4]: - | antifungal activity, Fungus C [5]: +

C[Si](C)(C)CC(O)(Cn1cncn1)c1ccc(Cl)c(Cl)c1Cl (stereo not shown) [Compound 1-64, 1-(1H-1,2,4-Triazol-1-yl)-2-(2,3,4-trichlorophenyl)-3-trimethylsilyl-2-propanol]
antifungal activity, Fungus B [1]: - | wood-preservative (antidecay) activity, Fungus E [2]: + | wood-preservative (antidecay) activity, Fungus D [3]: - | antifungal activity, Fungus A [4]: - | antifungal activity, Fungus C [5]: -

C[Si](C)(C)CC(O)(Cn1cncn1)c1cc(Cl)c(Cl)cc1Cl (stereo not shown) [Compound 1-65, 1-(1H-1,2,4-Triazol-1-yl)-2-(2,4,5-trichlorophenyl)-3-trimethylsilyl-2-propanol]
antifungal activity, Fungus B [1]: - | wood-preservative (antidecay) activity, Fungus E [2]: - | wood-preservative (antidecay) activity, Fungus D [3]: - | antifungal activity, Fungus A [4]: - | antifungal activity, Fungus C [5]: +

C[Si](C)(CC(O)(Cn1cncn1)c1ccc(F)cc1)c1ccc(Cl)cc1 (stereo not shown) [Compound 1-69, 3-[(4-Chlorophenyl)dimethylsilyl]-2-(4-fluorophenyl)-1-(1H-1,2,4-triazol-1-yl)-2-propanol]
antifungal activity, Fungus B [1]: - | wood-preservative (antidecay) activity, Fungus E [2]: - | wood-preservative (antidecay) activity, Fungus D [3]: + | antifungal activity, Fungus A [4]: - | antifungal activity, Fungus C [5]: +

CC[Si](C)(C)CC(O)(Cn1cncn1)c1ccc(F)cc1 (stereo not shown) [Compound 1-70, 3-Dimethylethylsilyl-2-(4-fluorophenyl)-1-(1H-1,2,4-triazol-1-yl)-2-propanol]
antifungal activity, Fungus B [1]: + | wood-preservative (antidecay) activity, Fungus E [2]: + | wood-preservative (antidecay) activity, Fungus D [3]: + | antifungal activity, Fungus A [4]: - | antifungal activity, Fungus C [5]: +

C[Si](C)(C)CC(O)(Cn1cncn1)c1ccc(F)cc1 (stereo not shown) [Compound 1-78, Adduct of 2-(4-fluorophenyl)-1-(1H1,2,4-triazol-1-yl)-3-trimethylsilyl-2-propanol with saccharin]
antifungal activity, Fungus B [1]: + | wood-preservative (antidecay) activity, Fungus E [2]: + | wood-preservative (antidecay) activity, Fungus D [3]: + | antifungal activity, Fungus A [4]: - | antifungal activity, Fungus C [5]: +

C[Si](C)(C)CC(O)(Cn1cncn1)c1ccc(Cl)cc1 (stereo not shown) [Compound 1-83, Adduct of 2-(4-chlorophenyl)-1-(1H-1,2,4-triazol-1-yl)-3-trimethylsilyl-2-propanol with saccharin]
antifungal activity, Fungus B [1]: + | wood-preservative (antidecay) activity, Fungus E [2]: + | wood-preservative (antidecay) activity, Fungus D [3]: + | antifungal activity, Fungus A [4]: - | antifungal activity, Fungus C [5]: +
